Tests used:
Type in all cases: cell-based
E. coli = test: Rate of kill assessment, direct repeat inoculation of medium containing catheter; conditions: sample taken 5 seconds after each inoculation
Method: (§1) To assess the sterilisation potential of the medium comprising chlorine-containing species, a microbiology assessment was conducted which consisted of rate of kill assessments against repeat inoculation of E. coli and E. faecalis. These organisms were selected as they are commonly identified in catheter associated urinary tract infections. The selection also covers both gram-positive and gram-negative species to test the broad spectrum antimicrobial performance of the medium.
(§2) Intermittent urinary catheters, as used for Example 1, were provided and submerged in an aqueous medium comprising sodium hypochlorite and sodium chloride. The media comprising the catheters were respectively inoculated with the two microorganisms.
(§3) A direct inoculation method was applied against each microorganism. The test organisms were reinoculated following 1, 2, 3, 4, 5, 6, and 24 hours. Following each inoculation, a sample was taken after 5 seconds, 1, 5, 10 and 15 minutes to evaluate the rate of kill.
(§4) A microbiology assessment was performed using a medium of the invention comprising hypochlorous acid in an analogous manner to that performed for Example 2. However, for this test, following each inoculation, a sample was only taken after 5 seconds to evaluate the rate of kill. Further, in addition to the previous microorganisms tested, a further gram-positive organism, S. aureus, was tested.
(§5) A microbiology assessment was performed using a medium comprising chlorine dioxide in an analogous manner to that performed for Example 5.
(§6) A microbiology assessment was performed using the media comprising hypochlorous acid in an analogous manner to that performed for Example 2. However, for this test, following each inoculation, samples were taken after 5 seconds, 30 seconds, 1, 2, and 5 minutes to evaluate the rate of kill.

E. faecalis = test: as above; conditions: for Reduction in microbial colony forming unit (CFU) counts: reinoculation at 24 hours; for Time up to which rapid kill within 5 seconds following inoculation was observed: repeat inoculation, sample taken 5 seconds after each inoculation
Method: as §1, §2, §3, §4, §5, §6

S. aureus = test: as above; conditions: sample taken 5 seconds after each inoculation
Method: as §4, §5

E. coli NCIMB 14067 = test: Antimicrobial efficacy at very low concentrations, suspension test with total viable counts
Method: The antimicrobial efficacy of hypochlorous acid was tested at even lower concentrations (10, 25, and 50 ppm) against the challenging organism E. coli NCIMB 14067.
The representative colonies of E. coli NCIMB 14067 were dispersed in maximum recovery diluent (MRD) to obtain an optical density (OD540nm) equivalent to approximately 1×10^6 CFU/mL. A quantitative plate count was performed on this suspension to determine the total number of viable organisms inoculated. A new suspension was prepared for each concentration tested.
A 1000 ppm hypochlorous acid solution was diluted in sterile deionised water to provide the respective 10, 25 and 50 ppm hypochlorous acid solutions.
The hypochlorous acid samples were aliquoted into 9 mL volumes and 1 mL of the challenge organism suspension was added and mixed (the final number of bacteria present is now approximately 1×10^5 CFU/mL). Following 5, 30 seconds, 1, 2, and 5 minutes, 100 μL volumes were sampled and transferred to 0.9 mL and 9.9 mL of Dey-Engley Neutralising Broth (DENB) (to provide a 1:10 and 1:100 dilution respectively), and total viable counts were performed to establish the amount present. The plates were left to dry before being inverted and incubated at 35±3° C. for at least 48 hours. A negative control was also tested whereby 1 mL of the challenge organism suspension was added to 9 mL of MRD and tested as previously described. Following the incubation period, the number of CFUs were counted on the most appropriate dilution for each sample i.e. between 25-250 CFU/plate.

[1] = test system: Enterococcus faecalis NCTC 12201; test: In vitro direct inoculation method, bacterial levels over 5 minutes
Method: (§7) An in vitro direct inoculation method was used to assess the antimicrobial activity of sulfanilamide in an intermittent urinary catheter scenario against […] Escherichia coli NCIMB 14067 and […] Enterococcus faecalis NCTC 12201; two microorganisms associated with urinary tract infections. Sulfanilamide concentrations of 0.1% and 0.01% were tested and bacterial levels monitored over a period of 5 minutes.
(§8) Representative colonies of the challenge microorganisms, from an 18-24 hour challenge culture plate, were dispersed in MRD to obtain an optical density (OD540nm) equivalent to approximately 1×10^8 CFU/mL. This was diluted to obtain a working concentration of 1×10^6 CFU/mL. A quantitative count was performed to confirm the inoculum level.
(§9) The challenge organism was prepared in MRD to a concentration of approximately 1×10^6 CFU/mL. This suspension was added in a 1 mL volume to 9 mL of sample (n=3 per sample, n=2 per control) in a sterile 30 mL universal and pipetted up and down to mix. Following each testing period, 5 seconds, 30 seconds, 1 minute, 2 minutes and 5 minutes, 100 μL of the test solution was transferred to 0.9 mL and 9.9 mL volumes of DENB (1:10 and 1:100 dilutions respectively). The most appropriate dilutions were inoculated (100 μL) onto duplicate pre-dried (tryptone soy agar) TSA plates and the inoculum spread using separate sterile L-shaped spreaders (for 10^−1 and 10^−2 dilutions, 0.5 mL were placed onto duplicate plates). The TSA plates were allowed to dry before being inverted and incubated at 35±3° C. for at least 48 hours. Following the incubation period, the number of bacterial colonies were counted on the most appropriate dilution for each dressing type i.e. between 25-250 CFU/plate.
(§10) The samples tested were: 0.1% sulfanilamide in sterile deionised water (SDW); 0.01% sulfanilamide in SDW; 100 ppm hypochlorous acid in SDW; and a SDW control.

[2] = test system: Escherichia coli NCIMB 14067; test: as above
Method: as §7, §8, §9, §10

[3] = 100 ppm in SDW, within 5 seconds and for the remaining testing period
[4] = both concentrations tested (0.1% and 0.01% in SDW), any timepoint, 5 seconds to 5 minutes

Row | Structure (SMILES) | Time up to which rapid kill within 5 seconds following inoculation was observed (E. coli) | Reduction in microbial colony forming unit (CFU) counts (E. faecalis; after around 30 seconds of inoculation) | Time up to which rapid kill within 5 seconds following inoculation was observed (E. faecalis) | Time up to which rapid kill within 5 seconds following inoculation was observed (S. aureus) | Reduction in microbial colony forming unit (CFU) counts (E. faecalis; after 5 minutes of inoculation) | Bacterial level at the 1 minute timepoint (E. coli NCIMB 14067; 10 ppm, about 1×10^5 CFU/mL inoculum) | Numbers of bacteria after 30 seconds (E. coli NCIMB 14067; 25 ppm, about 1×10^5 CFU/mL inoculum) | Numbers of bacteria after 30 seconds (E. coli NCIMB 14067; 50 ppm, about 1×10^5 CFU/mL inoculum) | CFU/mL of negative control (MRD) larger than for the samples (E. coli NCIMB 14067; all concentrations (10, 25, 50 ppm) and time points tested) | Numbers of challenge organism [1, 3] | Numbers of challenge organism [2, 3] | Decrease in challenge organism numbers compared to the control [1, 4] | Decrease in challenge organism numbers compared to the control [2, 4]
1 | [O][Cl+][O-] [chlorine dioxide] | up to 24 hours | 4 orders of magnitude | up to 6 hours | up to 6 hours | – | – | – | – | – | – | – | – | –
2 | OCl [hypochlorous acid] | up to 24 hours | – | up to 6 hours | up to 6 hours | over 3 orders of magnitude | undetectable | undetectable | undetectable | over 4 orders of magnitude | undetectable | undetectable | – | –
3 | Nc1ccc(S(N)(=O)=O)cc1 [sulfanilamide, reference compound] | – | – | – | – | – | – | – | – | – | – | – | no decrease | no decrease

— patent publication US20250339642A1, “CATHETERS” (ConvaTec Limited, priority 2023, published 2025)
